Test results from ChEMBL document CHEMBL1201862, “PubChem BioAssay data set” (2004).
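The compound was tested at five concentrations on cells cultured in 96-well plates, with a 48-hour exposure period. At the GI50, growth is halved.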 Calls of active or inactive are those of the source. No stated cut-off is given here; in the data, active = GI50 up to about 1.1 µM and inactive = higher.

Tests used:
Assay in all cases: inhibition of tumour cell growth, NCI panel, 48 h
[1] = system: SK-MEL-2
[2] = system: IGROV-1
[3] = system: COLO 205
[4] = system: CAKI-1
[5] = system: SF-268
[6] = system: OVCAR-3
[7] = system: OVCAR-8
[8] = system: SK-MEL-5
[9] = system: SW-620
[10] = system: RPMI-8226
[11] = system: LOX IMVI
[12] = system: K562
[13] = system: NCI-H460
[14] = system: HCT-116
[15] = system: SR
[16] = system: HOP-92
[17] = system: HOP-62

Measured: GI50

COc1ccc(/C(Cl)=C(\CN(C)C)c2ccc(OC)c(OC)c2)cc1OC
inactive: [1] 55.6 µM | [2] > 100 µM | [3] > 100 µM | [4] > 100 µM | [5] > 100 µM | [6] > 100 µM | [7] > 100 µM | [8] > 100 µM | [9] > 100 µM | [10] > 100 µM | [11] > 100 µM | [12] > 100 µM | [13] > 100 µM

CC(=O)OC1CCn2nnc(CO[Si](C)(C)C(C)(C)C)c21 (stereo not drawn)
inactive: [14] > 100 µM | [1] > 100 µM | [2] > 100 µM | [3] > 100 µM | [4] > 100 µM | [6] > 100 µM | [7] > 100 µM | [8] > 100 µM | [9] > 100 µM | [10] > 100 µM | [12] > 100 µM | [15] > 100 µM | [13] > 100 µM

OC1=CN=C(c2ccccc2)Oc2ccccc21
inactive: [14] 45.4 µM | [1] > 100 µM | [16] > 100 µM | [2] > 100 µM | [3] > 100 µM | [5] 41.4 µM | [6] 15.3 µM | [17] 68.1 µM | [7] > 100 µM | [8] > 100 µM | [9] > 100 µM | [10] > 100 µM | [11] > 100 µM | [12] > 100 µM | [13] > 100 µM

COC(=O)N/N=C(\C)C(CN1CCCCC1)C(C1=C(O)c2ccccc2OC1)c1ccccc1 (stereo not drawn)
inactive: [14] > 100 µM | [1] > 100 µM | [2] > 100 µM | [3] > 100 µM | [4] > 100 µM | [5] > 100 µM | [6] > 100 µM | [17] > 100 µM | [7] > 100 µM | [8] > 100 µM | [9] > 100 µM | [10] > 100 µM | [11] > 100 µM | [12] > 100 µM | [15] > 100 µM | [13] > 100 µM

Cc1cc(N(CCC#N)S(=O)(=O)c2ccccc2)ccc1/C=C1\N=C(c2ccc(Cl)cc2)OC1=O
inactive: [14] > 100 µM | [1] > 100 µM | [16] > 100 µM | [2] > 100 µM | [3] > 100 µM | [4] > 100 µM | [5] > 100 µM | [6] > 100 µM | [7] > 100 µM | [8] > 100 µM | [9] > 100 µM | [10] > 100 µM | [11] > 100 µM | [12] > 100 µM | [13] > 100 µM

CC(C)(C)c1ccc2c(c1)C(O)(c1ccccc1)c1cc(C(C)(C)C)ccc1C2(O)C(F)(F)F (stereo not drawn)
inactive: [14] 1.87 µM | [1] 1.76 µM | [16] 1.97 µM | [2] 2.15 µM | [3] 1.82 µM | [4] 1.74 µM | [5] 2.27 µM | [6] 1.94 µM | [17] 1.29 µM | [7] 2.12 µM | [9] 1.88 µM | [11] 1.82 µM | [12] 2.56 µM | [15] 2.13 µM | [13] 1.61 µM

COc1ccc2c(c1)N1CCc3cc(OC)c(OC)cc3C1C2 (stereo not drawn)
inactive: [1] 87.5 µM | [16] 79.8 µM | [2] 28.4 µM | [3] > 100 µM | [4] 53.2 µM | [5] > 100 µM | [17] > 100 µM | [7] > 100 µM | [9] > 100 µM | [11] 98.6 µM | [12] 32.3 µM | [15] 34.2 µM | [13] 52.4 µM

O=[N+]([O-])C=C(c1ccc(Cl)cc1)c1ccc(Cl)cc1
inactive: [14] 17.7 µM | [1] 29.2 µM | [2] 28.1 µM | [3] 3.85 µM | [4] 16.6 µM | [6] > 10 µM | [17] 18.6 µM | [7] 17.6 µM | [9] 16.2 µM | [10] 11.2 µM | [11] 12.7 µM | [12] 21.3 µM | [15] 19.5 µM | [13] 20.3 µM

O=c1[nH]c(=O)n(C2CC(O)C(CO)O2)cc1C#Cc1ccc(F)cc1 (stereo not drawn)
inactive: [1] > 100 µM | [2] > 100 µM | [3] > 100 µM | [4] > 100 µM | [5] > 100 µM | [6] > 100 µM | [17] > 100 µM | [7] > 100 µM | [8] > 100 µM | [9] > 100 µM | [10] > 100 µM | [11] > 100 µM | [12] > 100 µM | [15] > 100 µM | [13] > 100 µM

N=C(N)NNC(=O)CCn1[nH]c(=O)c(Cl)c(Cl)c1=O
inactive: [1] > 100 µM | [2] > 100 µM | [3] > 100 µM | [4] > 100 µM | [5] > 100 µM | [6] > 100 µM | [17] > 100 µM | [7] > 100 µM | [8] > 100 µM | [9] > 100 µM | [10] > 100 µM | [11] > 100 µM | [12] > 100 µM | [13] > 100 µM

COC(=O)C(C)NP(=O)(N1CC1)N1CC1 (stereo not drawn)
inactive: [1] > 100 µM | [2] > 100 µM | [3] > 100 µM | [4] > 100 µM | [5] > 100 µM | [7] > 100 µM | [8] > 100 µM | [9] > 100 µM | [10] > 100 µM | [11] 80 µM | [12] > 100 µM

Cc1ccc(NC(=O)CSc2nnc(-c3ccc(/N=C\c4ccc(Cl)cc4)cc3)o2)cc1
inactive: [14] > 100 µM | [1] > 100 µM | [3] > 100 µM | [5] > 100 µM | [17] > 100 µM | [7] > 100 µM | [8] > 100 µM | [9] > 100 µM | [10] > 100 µM | [11] > 100 µM | [12] > 100 µM | [15] > 100 µM | [13] > 100 µM

Cc1ccc(C)c(NC(=O)CCC(=O)CC(=O)C(C)(C)C)c1
inactive: [14] > 100 µM | [1] > 100 µM | [16] > 100 µM | [2] > 100 µM | [3] > 100 µM | [4] > 100 µM | [5] > 100 µM | [6] > 100 µM | [17] > 100 µM | [7] > 100 µM | [8] > 100 µM | [9] > 100 µM | [10] > 100 µM | [11] > 100 µM | [12] > 100 µM | [13] > 100 µM

O=S(=O)(C1=CC(S(=O)(=O)c2ccccc2)CN(Cc2ccccc2)C1c1cccc2ccccc12)c1ccccc1 (stereo not drawn)
inactive: [14] > 69 µM | [1] > 69 µM | [16] 6.3 µM | [2] > 69 µM | [4] 20.7 µM | [5] > 69 µM | [6] > 69 µM | [17] > 69 µM | [7] > 69 µM | [8] > 69 µM | [9] > 69 µM | [10] > 69 µM | [11] > 69 µM | [12] > 69 µM | [13] > 69 µM

O=C1[C@@H]2C(c3ccncc3)=NO[C@@H]2C(=O)N1c1ccc(Cc2ccc(N3C(=O)[C@H]4C(c5ccncc5)=NO[C@H]4C3=O)cc2)cc1
inactive: [1] > 100 µM | [16] > 100 µM | [2] > 100 µM | [3] > 100 µM | [4] > 100 µM | [5] > 100 µM | [6] > 100 µM | [17] > 100 µM | [7] > 100 µM | [8] > 100 µM | [9] > 100 µM | [10] > 100 µM | [11] > 100 µM | [12] > 100 µM | [13] > 100 µM

Sc1nnc(-c2ccnc(-c3nnc(S)[nH]3)c2)[nH]1
inactive: [14] > 100 µM | [1] > 100 µM | [2] > 100 µM | [3] > 100 µM | [4] > 100 µM | [5] > 100 µM | [6] > 100 µM | [17] > 100 µM | [7] > 100 µM | [8] > 100 µM | [9] > 100 µM | [10] > 100 µM | [11] > 100 µM | [12] > 100 µM | [13] > 100 µM

COC(=O)C(C(=O)C(=O)Nc1ccccc1OC)c1csc(-n2nc(-c3ccccc3)cc2-c2ccccc2)n1 (stereo not drawn)
inactive: [14] > 100 µM | [16] > 100 µM | [2] > 100 µM | [3] > 100 µM | [4] > 100 µM | [5] > 100 µM | [6] > 100 µM | [17] > 100 µM | [7] > 100 µM | [9] > 100 µM | [10] > 100 µM | [11] > 100 µM | [12] > 100 µM | [15] 90.8 µM | [13] > 100 µM

CCOC(=O)c1nc(C)oc1C(F)(F)F
inactive: [14] > 100 µM | [1] > 100 µM | [16] > 100 µM | [2] > 100 µM | [3] > 100 µM | [4] > 100 µM | [5] > 100 µM | [6] > 100 µM | [17] > 100 µM | [7] > 100 µM | [9] > 100 µM | [11] > 100 µM | [12] > 100 µM | [15] > 100 µM | [13] > 100 µM
